Reference: patent US10681908B2, “Molecules having pesticidal utility, and intermediates, compositions, and processes, related thereto” (Dow AgroSciences LLC, priority 2016, dated 2020)

Columns and labels:
[1] = test system: Beet Armyworm (Spodoptera exigua, LAPHEG); test: Bioassay on Beet Armyworm (BAW), 128-well diet tray assay; format: in vivo; conditions: for mortality at 50 µg/cm2: 168 h, 50 μg/cm^2 on artificial diet, second instar larvae, five to seven days, 25° C., read-out: BAW % Control (or Mortality) rating
Description: (§1) Example A: Bioassays on Beet Armyworm (Spodoptera Exigua, LAPHEG) (“BAW”), Corn Earworm (Helicoverpa zea, HELIZE) (“CEW”), and Cabbage Looper (Trichoplusia ni, TRIPNI) (“CL”)
(§2) Certain molecules disclosed in this document were tested against BAW, CEW, and CL using procedures described in the following examples. In the reporting of the results, the “BAW, CEW, & CL Rating Table” was used (See Table Section).
Bioassays on BAW were conducted using a 128-well diet tray assay. One to five second instar BAW larvae were placed in each well (3 mL) of the diet tray that had been previously filled with 1 mL of artificial diet to which 50 μg/cm^2 of the test molecule (dissolved in 50 μL of 90:10 acetone-water mixture) had been applied (to each of eight wells) and then allowed to dry. Trays were covered with a clear self-adhesive cover and held at 25° C., 14:10 light-dark for five to seven days. Percent mortality was recorded for the larvae in each well; activity in the eight wells was then averaged. The results are indicated in the table entitled “Table ABC: Biological Results” (See Table Section).
(§3) Bioassays on BAW and CL were conducted according to the procedures outlined in Example A: Bioassays on Beet Armyworm (“BAW”) and Cabbage Looper (“CL”) using the indicated concentrations.

[2] = test system: Cabbage Looper (Trichoplusia ni, TRIPNI); test: Bioassay on Cabbage Looper (CL), 128-well diet tray assay; format: in vivo; conditions: for mortality at 50 µg/cm2: 168 h, 50 μg/cm^2 on artificial diet, second instar larvae, five to seven days, 25° C., read-out: CL % Control (or Mortality) rating
Description: as §1, §2
Bioassays on CL were conducted using a 128-well diet tray assay. One to five second instar CL larvae were placed in each well (3 mL) of the diet tray that had been previously filled with 1 mL of artificial diet to which 50 μg/cm^2 of the test molecule (dissolved in 50 μL of 90:10 acetone-water mixture) had been applied (to each of eight wells) and then allowed to dry. Trays were covered with a clear self-adhesive cover and held at 25° C., 14:10 light-dark for five to seven days. Percent mortality was recorded for the larvae in each well; activity in the eight wells was then averaged. The results are indicated in the table entitled “Table ABC: Biological Results” (See Table Section).
as §3

Compound | mortality at 50 µg/cm2 [1] | mortality at 50 µg/cm2 [2] | other results
C[C@H](CSCC(F)(F)F)NC(=O)c1ccc(/C(F)=C/C(c2cc(F)c(Cl)c(C(F)(F)F)c2)C(F)(F)F)cc1C(F)(F)F (stereo partly drawn) [F117, 4-((Z)-3-(4-Chloro-3-fluoro-5-(trifluoromethyl)phenyl)-1,4,4,4-tetrafluorobut-1-en-1-yl)-N—((R)-1-((2,2,2-trifluoroethyl)thio)propan-2-yl)-2-(trifluoromethyl)benzamide] | 50 to 100% | 50 to 100% | –
C[C@H](C[S+]([O-])CC(F)(F)F)NC(=O)c1ccc(/C(F)=C/C(c2cc(Cl)c(Cl)c(Cl)c2)C(F)(F)F)cc1Cl (stereo partly drawn) [F12, 2-Chloro-4-((Z)-1,4,4,4-tetrafluoro-3-(3,4,5-trichlorophenyl)but-1-en-1-yl)-N-((2R)-1-((2,2,2-trifluoroethyl)sulfinyl)propan-2-yl)benzamide] | 50 to 100% | 50 to 100% | –
C=Cc1cc(Cl)cc(C(/C=C(\F)c2ccc(C(=O)N[C@H](C)CS(=O)(=O)CC(F)(F)F)c(C(F)(F)F)c2)C(F)(F)F)c1 (stereo partly drawn) [F112, 4-((Z)-3-(3-Chloro-5-vinylphenyl)-1,4,4,4-tetrafluorobut-1-en-1-yl)-N—((R)-1-((2,2,2-trifluoroethyl)sulfonyl)propan-2-yl)-2-(trifluoromethyl)benzamide] | 50 to 100% | 50 to 100% | –
C[C@H](C[S+]([O-])CC(F)(F)F)NC(=O)c1ccc(/C(F)=C/C(c2cc(Cl)c(Cl)c(Cl)c2)C(F)(F)F)cc1Br (stereo partly drawn) [F9, 2-Bromo-4-((Z)-1,4,4,4-tetrafluoro-3-(3,4,5-trichlorophenyl)but-1-en-1-yl)-N-((2R)-1-((2,2,2-trifluoroethyl)sulfinyl)propan-2-yl)benzamide] | 50 to 100% | 50 to 100% | –
C[C@H](CS(=O)(=O)CC(F)(F)F)NC(=O)c1ccc(/C(F)=C/C(c2ccc(Cl)c(Br)c2)C(F)(F)F)cc1C(F)(F)F (stereo partly drawn) [F79, 4-((Z)-3-(3-Bromo-4-chlorophenyl)-1,4,4,4-tetrafluorobut-1-en-1-yl)-N—((R)-1-((2,2,2-trifluoroethyl)sulfonyl)propan-2-yl)-2-(trifluoromethyl)benzamide] | 50 to 100% | 50 to 100% | –
C[C@H](C[S+]([O-])CC(F)F)NC(=O)c1ccc(/C(F)=C/C(c2cc(Cl)c(Cl)c(Cl)c2)C(F)(F)F)cc1C(F)(F)F (stereo partly drawn) [F86, N-((2R)-1-((2,2-Difluoroethyl)sulfinyl)propan-2-yl)-4-((Z)-1,4,4,4-tetrafluoro-3-(3,4,5-trichlorophenyl)but-1-en-1-yl)-2-(trifluoromethyl)benzamide] | 50 to 100% | 50 to 100% | –
C[C@H](CSCC#N)NC(=O)c1ccc(/C(F)=C/C(c2cc(Cl)c(Cl)c(Cl)c2)C(F)(F)F)cc1C(F)(F)F (stereo partly drawn) [F83, N—((R)-1-((Cyanomethyl)thio)propan-2-yl)-4-((Z)-1,4,4,4-tetrafluoro-3-(3,4,5-trichlorophenyl)but-1-en-1-yl)-2-(trifluoromethyl)benzamide] | 50 to 100% | 50 to 100% | –
C[C@H](CS(=O)(=O)CC(F)(F)F)NC(=O)c1ccc(/C(F)=C/C(c2cc(Cl)c(Cl)c(Br)c2)C(F)(F)F)cc1C(F)(F)F (stereo partly drawn) [F80, 4-((Z)-3-(3-Bromo-4,5-dichlorophenyl)-1,4,4,4-tetrafluorobut-1-en-1-yl)-N—((R)-1-((2,2,2-trifluoroethyl)sulfonyl)propan-2-yl)-2-(trifluoromethyl)benzamide] | 50 to 100% | 50 to 100% | –
O=C(NCC[S+]([O-])CCF)c1ccc(/C(F)=C/C(c2cc(Cl)c(Cl)c(Cl)c2)C(F)(F)F)cc1C(F)(F)F (centres unmarked) [F138, (Z)—N-(2-((2-Fluoroethyl)sulfinyl)ethyl)-4-(1,4,4,4-tetrafluoro-3-(3,4,5-trichlorophenyl)but-1-en-1-yl)-2-(trifluoromethyl)benzamide] | 50 to 100% | 50 to 100% | –
C[C@H](CS(=O)(=O)CC(F)(F)F)NC(=O)c1ccc(/C(F)=C/C(c2ccc(Cl)c(OC(F)(F)F)c2)C(F)(F)F)cc1C(F)(F)F (stereo partly drawn) [F127, 4-((Z)-3-(4-Chloro-3-(trifluoromethoxy)phenyl)-1,4,4,4-tetrafluorobut-1-en-1-yl)-N—((R)-1-((2,2,2-trifluoroethyl)sulfonyl)propan-2-yl)-2-(trifluoromethyl)benzamide] | 50 to 100% | 50 to 100% | –
C[C@H](CSCCF)NC(=O)c1ccc(/C(F)=C/C(c2cc(Cl)c(Cl)c(Cl)c2)C(F)(F)F)cc1C(F)(F)F (stereo partly drawn) [F84, N—((R)-1-((2-Fluoroethyl)thio)propan-2-yl)-4-((Z)-1,4,4,4-tetrafluoro-3-(3,4,5-trichlorophenyl)but-1-en-1-yl)-2-(trifluoromethyl)benzamide] | 50 to 100% | 50 to 100% | –
C[C@H](CSCC(F)(F)F)NC(=O)c1ccc(/C(F)=C/C(c2cc(Cl)c(Cl)c(Cl)c2)C(F)(F)F)cc1Br (stereo partly drawn) [F7, 2-Bromo-4-((Z)-1,4,4,4-tetrafluoro-3-(3,4,5-trichlorophenyl)but-1-en-1-yl)-N—((R)-1-((2,2,2-trifluoroethyl)thio)propan-2-yl)benzamide] | 50 to 100% | 50 to 100% | mortality at 0.05 µg/cm2 ([1]; 0.05 μg/cm^2, Table CD2 comparative data, read-out: Percent control (or mortality) BAW): 0%; mortality at 0.5 µg/cm2 ([1]; 0.5 μg/cm^2, Table CD2 comparative data, read-out: Percent control (or mortality) BAW): 100%; mortality at 5 µg/cm2 ([1]; 5 μg/cm^2, Table CD2 comparative data, read-out: Percent control (or mortality) BAW): 100%; mortality at 0.05 µg/cm2 ([2]; 0.05 μg/cm^2, Table CD2 comparative data, read-out: Percent control (or mortality) CL): 0%; mortality at 0.5 µg/cm2 ([2]; 0.5 μg/cm^2, Table CD2 comparative data, read-out: Percent control (or mortality) CL): 56%; mortality at 5 µg/cm2 ([2]; 5 μg/cm^2, Table CD2 comparative data, read-out: Percent control (or mortality) CL): 100%
C[C@H](CS(=O)(=O)CCF)NC(=O)c1ccc(/C(F)=C/C(c2cc(Cl)c(Cl)c(Cl)c2)C(F)(F)F)cc1C(F)(F)F (stereo partly drawn) [F85, N—((R)-1-((2-Fluoroethyl)sulfonyl)propan-2-yl)-4-((Z)-1,4,4,4-tetrafluoro-3-(3,4,5-trichlorophenyl)but-1-en-1-yl)-2-(trifluoromethyl)benzamide] | 50 to 100% | 50 to 100% | –
C[C@H](CS(=O)(=O)CC(F)(F)F)NC(=O)c1ccc(/C(F)=C/C(c2ccc(F)c(C(F)(F)F)c2)C(F)(F)F)cc1C(F)(F)F (stereo partly drawn) [F77, 4-((Z)-1,4,4,4-Tetrafluoro-3-(4-fluoro-3-(trifluoromethyl)phenyl)but-1-en-1-yl)-N—((R)-1-((2,2,2-trifluoroethyl)sulfonyl)propan-2-yl)-2-(trifluoromethyl)benzamide] | 50 to 100% | 50 to 100% | –
CC(CNC(=O)c1ccc(/C(F)=C/C(c2cc(Cl)c(Cl)c(Cl)c2)C(F)(F)F)cc1C(F)(F)F)S(C)(=O)=O (centres unmarked) [F124, (Z)—N-(2-(methylsulfonyl)propyl)-4-(1,4,4,4-tetrafluoro-3-(3,4,5-trichlorophenyl)but-1-en-1-yl)-2-(trifluoromethyl)benzamide] | 50 to 100% | 50 to 100% | –
C[C@H](CS(=O)(=O)CC(F)(F)F)NC(=O)c1ccc(/C(F)=C/[C@@H](c2cc(Cl)c(Cl)c(Cl)c2)C(F)(F)F)cc1C(F)(F)F [F136, 4-((S,Z)-1,4,4,4-tetrafluoro-3-(3,4,5-trichlorophenyl)but-1-en-1-yl)-N—((R)-1-((2,2,2-trifluoroethyl)sulfonyl)propan-2-yl)-2-(trifluoromethyl)benzamide] | 50 to 100% | 50 to 100% | –
CCSC[C@@H](C)NC(=O)c1ccc(/C(F)=C/C(c2cc(Br)cc(Br)c2)C(F)(F)F)cc1C(F)(F)F (stereo partly drawn) [F40, 4-((Z)-3-(3,5-Dibromophenyl)-1,4,4,4-tetrafluorobut-1-en-1-yl)-N—((R)-1-(ethylthio)propan-2-yl)-2-(trifluoromethyl)benzamide] | 50 to 100% | 50 to 100% | –
C[C@H](CSCC(F)(F)F)NC(=O)c1ccc(/C(F)=C/C(c2ccc(Cl)c(Cl)c2)C(C)(F)F)cc1C(F)(F)F (stereo partly drawn) [F57, 4-((Z)-3-(3,4-Dichlorophenyl)-1,4,4-trifluoropent-1-en-1-yl)-N—((R)-1-((2,2,2-trifluoroethyl)thio)propan-2-yl)-2-(trifluoromethyl)benzamide] | 50 to 100% | 50 to 100% | –
C[C@H](CS(=O)(=O)CC(F)(F)F)NC(=O)c1ccc(/C(F)=C/C(c2cc(F)c(F)c(Br)c2)C(F)(F)F)cc1C(F)(F)F (stereo partly drawn) [F94, 4-((Z)-3-(3-Bromo-4,5-difluorophenyl)-1,4,4,4-tetrafluorobut-1-en-1-yl)-N—((R)-1-((2,2,2-trifluoroethyl)sulfonyl)propan-2-yl)-2-(trifluoromethyl)benzamide] | 50 to 100% | 50 to 100% | –
